What all share (format): cell-based
For one test, the system named is KMS-11. In words: gIC50 in multiple myeloma cell line KMS-11 treated with EZH2 inhibitors. The conditions noted are these: Homo sapiens, t(4;14)+. The method, then:
(§1) All cells were grown in RPMI 1640 (Invitrogen) supplemented with 10% heat-inactivated FBS and 1% penicillin/streptomycin.
(§2) Cells were treated with the EZH2 inhibitors below. GSK2816126A is also known as GSK126 and is a compound of Formula I, specifically Compound B as described herein. Data in Table I was used to generate the data in FIG. 14. EZH2 inhibitors of Formula II, III, and IV and Compound C are used to generate gIC50 values and similar results as with GSK126 are found. Additional cell lines are tested with EZH2 inhibitors of Formula I, II, III, IV, Compound B, and Compound C and an improved cell killing, e.g. as measured by gIC50, is seen in cell lines having an increased level of MMSET expression, or a decreased level of UTX enzyme, or both, as compared to a control, e.g. a tissue typed control sample not characterized as having cancerous attributes.

The test system of a further test is RPMI-8226. The test can be described thus: gIC50 in multiple myeloma cell line RPMI-8226 treated with EZH2 inhibitors. The following applies: Homo sapiens, MMSET none, UTX wt. The method, then: as §1, §2
For the next test, the system named is OpM2. The test can be described thus: gIC50 in multiple myeloma cell line OpM2 treated with EZH2 inhibitors. The conditions noted are these: Homo sapiens, OPM-2, t(4;14)+, UTX Het c.197G>A p.G66D. The method, then: as §1, §2
Another test has as its system LP1. The test can be described thus: gIC50 in multiple myeloma cell line LP1 treated with EZH2 inhibitors. The following applies: Homo sapiens, LP-1, t(4;14)+, UTX Hom 1621C>T (Q541X). Here is the method:
as §1, §2

For another test, the system named is KMS-12-BM. The test can be described thus: gIC50 in multiple myeloma cell line KMS-12-BM treated with EZH2 inhibitors. The conditions noted are these: Homo sapiens, MMSET none, UTX Hom del exons 5-12. The method, then: as §1, §2

In general, IC50 refers to the concentration needed to halve the response being measured. Read a high IC50 as weaker potency in that assay.

On to `CC[C@H](C)n1cc(C)c2c(C(=O)NCc3c(C)cc(C)[nH]c3=O)cc(-c3ccc(N4CCNCC4)nc3)cc21` [GSK2816126A], for which the IC50 in the test on KMS-11 came to 3020 nM; in the test on RPMI-8226, 1680 nM; in the test with OpM2 it was 861 nM; in the test on LP1 it was 2380 nM; in the test with KMS-12-BM it was 2570 nM.
